Test results from US20120220562A1, “Anti-Viral Compounds” (ABBOTT LABAORATORIES, priority 2011, published 2012).

Key:
[1] = system: HCV 1b-Con1 replicon; assay: HCV 1b-Con1 replicon assay in the presence of 5% FBS; assay type: cell-based; settings: Hepatitis C virus
[2] = system: HCV 2a, 2b, 3a and 4a replicons; assay: HCV 2a, 2b, 3a and 4a replicon assays in the absence of human plasma; assay type: cell-based
Procedure: The inhibitory effects of the compounds of the invention on HCV replication can be determined by measuring activity of the luciferase reporter gene. For example, replicon-containing cells can be seeded into 96 well plates at a density of 5000 cells per well in 100 μl DMEM containing 5% FBS. The following day compounds can be diluted in dimethyl sulfoxide (DMSO) to generate a 200× stock in a series of eight half-log dilutions. The dilution series can then be further diluted 100-fold in the medium containing 5% FBS. Medium with the inhibitor is added to the overnight cell culture plates already containing 100 μl of DMEM with 5% FBS. In assays measuring inhibitory activity in the presence of human plasma, the medium from the overnight cell culture plates can be replaced with DMEM containing 40% human plasma and 5% FBS. […] Luciferin solution (100 μl, Promega) can be added to each well, and luciferase activity can be measured with a Victor II luminometer (Perkin-Elmer). The percent inhibition of HCV RNA replication can be calculated for each compound concentration and the EC50 value can be calculated using nonlinear regression curve fitting to the 4-parameter logistic equation and GraphPal Prism 4 software.

[3] = AUC value (pharmacokinetics); settings: in vivo

| SMILES | EC50 [1] [nM] | EC50 values, fold less than those of Example 4.25 [2] | AUC value, fold greater than that of Example 109 of the '301 application [3] | AUC value, fold greater than that of Example 2.9 [3] |
| --- | --- | --- | --- | --- |
| COC(=O)N[C@H](C(=O)N1CCC[C@H]1c1nc2cc([C@H]3CC[C@H](c4ccc5[nH]c([C@@H]6CCCN6C(=O)[C@@H](NC(=O)OC)C(C)C)nc5c4)N3c3ccc(N4CCC(c5ccccc5)CC4)c(F)c3)ccc2[nH]1)C(C)C [Example 3.20, methyl {(2S)-1-[(2S)-2-{5-[(2R,5R)-1-[3-fluoro-4-(4-phenylpiperidin-1-yl)phenyl]-5-{2-[(2S)-1-{(2S)-2-[(methoxycarbonyl)amino]-3-methylbutanoyl}pyrrolidin-2-yl]-1H-benzimidazol-5-yl}pyrrolidin-2-yl]-1H-benzimidazol-2-yl}pyrrolidin-1-yl]-3-methyl-1-oxobutan-2-yl}carbamate] | < 0.1 | at least 15 fold | – | – |
| COC(=O)N[C@H](C(=O)N1CCC[C@H]1c1nc2cc([C@H]3CC[C@H](c4cc5[nH]c([C@@H]6CCCN6C(=O)[C@@H](NC(=O)OC)C(C)C)nc5cc4F)N3c3ccc(C(C)(C)C)cc3)c(F)cc2[nH]1)C(C)C [Example 6.1, methyl {(2S)-1-[(2S)-2-{5-[(2R,5R)-1-(4-tert-butylphenyl)-5-{5-fluoro-2-[(2S)-1-{(2S)-2-[(methoxycarbonyl)amino]-3-methylbutanoyl}pyrrolidin-2-yl]-1H-benzimidazol-6-yl}pyrrolidin-2-yl]-6-fluoro-1H-benzimidazol-2-yl}pyrrolidin-1-yl]-3-methyl-1-oxobutan-2-yl}carbamate] | < 0.1 | – | about 9 fold | – |
| COC(=O)N[C@H](C(=O)N1CCC[C@H]1c1nc2cc([C@H]3CC[C@H](c4ccc5[nH]c([C@@H]6CCCN6C(=O)[C@@H](NC(=O)OC)C(C)C)nc5c4)N3c3cc(F)c(N4CCC(c5ccccc5)CC4)c(F)c3)ccc2[nH]1)C(C)C [Example 5.1, methyl {(2S)-1-[(2S)-2-{5-[(2R,5R)-1-[3,5-difluoro-4-(4-phenylpiperidin-1-yl)phenyl]-5-{2-[(2S)-1-{(2S)-2-[(methoxycarbonyl)amino]-3-methylbutanoyl}pyrrolidin-2-yl]-1H-benzimidazol-5-yl}pyrrolidin-2-yl]-1H-benzimidazol-2-yl}pyrrolidin-1-yl]-3-methyl-1-oxobutan-2-yl}carbamate] | < 0.1 | at least 50 fold | – | about 30 fold |
| COC(=O)N[C@H](C(=O)N1C(c2nc3cc([C@H]4CC[C@H](c5ccc6[nH]c([C@@H]7C[C@@H]8CCC[C@@H]8N7C(=O)[C@@H](NC(=O)OC)C(C)C)nc6c5)N4c4cc(F)c(N5CCCCC5)c(F)c4)ccc3[nH]2)C[C@@H]2CCC[C@@H]21)C(C)C (stereo partly drawn) [Example 4.18, methyl {(2S)-1-[(2S,3aS,6aS)-2-{5-[(2R,5R)-1-[3,5-difluoro-4-(piperidin-1-yl)phenyl]-5-{2-[(3aS,6aS)-1-{(2S)-2-[(methoxycarbonyl)amino]-3-methylbutanoyl}octahydrocyclopenta[b]pyrrol-2-yl]-1H-benzimidazol-5-yl}pyrrolidin-2-yl]-1H-benzimidazol-2-yl}hexahydrocyclopenta[b]pyrrol-1(2H)-yl]-3-methyl-1-oxobutan-2-yl}carbamate] | < 0.1 | – | – | – |
| COC(=O)N[C@H](C(=O)N1CCC[C@H]1c1nc2cc([C@H]3CC[C@H](c4ccc5[nH]c([C@@H]6CCCN6C(=O)[C@@H](NC(=O)OC)C(C)C)nc5c4)N3c3cc(F)c(N4CCC(c5cc(F)cc(F)c5)CC4)c(F)c3)ccc2[nH]1)C(C)C [Example 3.45, methyl {(2S)-1-[(2S)-2-{5-[(2R,5R)-1-{4-[4-(3,5-difluorophenyl)piperidin-1-yl]-3,5-difluorophenyl}-5-{2-[(2S)-1-{(2S)-2-[(methoxycarbonyl)amino]-3-methylbutanoyl}pyrrolidin-2-yl]-1H-benzimidazol-5-yl}pyrrolidin-2-yl]-1H-benzimidazol-2-yl}pyrrolidin-1-yl]-3-methyl-1-oxobutan-2-yl}carbamate] | < 0.1 | – | – | – |
